Measured values reported in PubChem BioAssay AID248 (DTP/NCI, 2004).
Several values for one entry are separate records, joined by “and”; a condition that tells them apart may be missing. Identical values can stand only once. Inconclusive results and toxic doses are left out. No stated cut-off is given here; in the data, active means T/C of 150% or more; inactive means T/C below 125%.

System: L1210 leukemia ip in BDF1 mice, survival T/C
Experiment: NCI In Vivo Anticancer Drug Screen. Data for tumor model L1210 Leukemia (intraperitoneal) in B6D2F1 (BDF1) mice
Conditions: endpoint: mean survival time, higher = longer survival
Summary of the method: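 Transplanted-tumor mice were given test agent; controls received vehicle only. Survival readings from the two groups were divided (treated over control).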

[1] = dose: 100.0 mg/kg/injection, schedule: Q04DX003 (ip), vehicle: Klucel (hydroxypropylcellulose) (HPC)
[2] = dose: 200.0 mg/kg/injection, schedule: Q04DX003 (ip), vehicle: Klucel (hydroxypropylcellulose) (HPC)
[3] = dose: 400.0 mg/kg/injection, schedule: Q04DX003 (ip), vehicle: Klucel (hydroxypropylcellulose) (HPC)
[4] = dose: 100.0 mg/kg/injection, schedule: Q04DX002 (ip), vehicle: saline
[5] = dose: 200.0 mg/kg/injection, schedule: Q04DX002 (ip), vehicle: saline
[6] = dose: 400.0 mg/kg/injection, schedule: Q04DX002 (ip), vehicle: saline
[7] = dose: 75.0 mg/kg/injection, schedule: Q01DX001 (ip), vehicle: saline
[8] = dose: 100.0 mg/kg/injection, schedule: Q04DX002 (ip), vehicle: Klucel (hydroxypropylcellulose) (HPC)
[9] = dose: 200.0 mg/kg/injection, schedule: Q04DX002 (ip), vehicle: Klucel (hydroxypropylcellulose) (HPC)
[10] = dose: 400.0 mg/kg/injection, schedule: Q04DX002 (ip), vehicle: Klucel (hydroxypropylcellulose) (HPC)
[11] = dose: 100.0 mg/kg/injection, schedule: Q04DX003 (ip), vehicle: saline
[12] = dose: 200.0 mg/kg/injection, schedule: Q04DX003 (ip), vehicle: saline

Measured: T/C

CCC(c1ccc(OC)cc1)C(CC)c1ccc(O)c(CN2CCN(C)CC2)c1 (centres undefined)
inactive: dose: 100.0 mg/kg/injection, schedule: Q04DX003 (ip), vehicle: saline with Tween-80 94 % of control | dose: 200.0 mg/kg/injection, schedule: Q04DX003 (ip), vehicle: saline with Tween-80 94 % of control | dose: 400.0 mg/kg/injection, schedule: Q04DX003 (ip), vehicle: saline with Tween-80 94 % of control

CN(C=O)C(=S)[S][Sb]([S]C(=S)N(C)C=O)[S]c1nc2ccc(N=Nc3ccc(NS(=O)(=O)c4ccc(NC(=O)C(Cl)Cl)cc4)cc3)cc2s1
inactive: dose: 100.0 mg/kg/injection, schedule: Q01DX001 (ip), vehicle: steriod suspending solution 101 % of control

Cc1nonc1C
inactive: dose: 31.2 mg/kg/injection, schedule: Q01DX Z (ip), vehicle: other 100 % of control | dose: 62.5 mg/kg/injection, schedule: Q01DX Z (ip), vehicle: other 90 % of control | [1] 103 % of control | dose: 125.0 mg/kg/injection, schedule: Q01DX Z (ip), vehicle: other 88 % of control | [2] 98 % of control | dose: 250.0 mg/kg/injection, schedule: Q01DX Z (ip), vehicle: other 90 % of control | [3] 106 % of control

NC(N)=N/N=C(/C=C/c1ccccc1)c1ccc(Cl)cc1
inactive: dose: 15.0 mg/kg/injection, schedule: Q01DX Z (ip), vehicle: carboxymethylcellulose (CMC) 92 % of control | dose: 30.0 mg/kg/injection, schedule: Q01DX Z (ip), vehicle: carboxymethylcellulose (CMC) 92 % of control | dose: 60.0 mg/kg/injection, schedule: Q01DX Z (ip), vehicle: carboxymethylcellulose (CMC) 95 % of control and 91 % of control | dose: 120.0 mg/kg/injection, schedule: Q01DX Z (ip), vehicle: carboxymethylcellulose (CMC) 101 % of control and 88 % of control | dose: 120.0 mg/kg/injection, schedule: Q01DX Z (oral), vehicle: carboxymethylcellulose (CMC) 96 % of control | dose: 240.0 mg/kg/injection, schedule: Q01DX Z (ip), vehicle: carboxymethylcellulose (CMC) 90 % of control | dose: 240.0 mg/kg/injection, schedule: Q01DX Z (oral), vehicle: carboxymethylcellulose (CMC) 100 % of control | dose: 480.0 mg/kg/injection, schedule: Q01DX Z (oral), vehicle: carboxymethylcellulose (CMC) 105 % of control | dose: 960.0 mg/kg/injection, schedule: Q01DX Z (oral), vehicle: carboxymethylcellulose (CMC) 102 % of control

O=C(OC1c2ccccc2-c2ccccc21)c1cc([N+](=O)[O-])cc([N+](=O)[O-])c1
inactive: [4] 97 % of control | [5] 97 % of control | [6] 90 % of control

Clc1nc(Cl)c2c(n1)NCCN2
inactive: dose: 50.0 mg/kg/injection, schedule: Q01DX009 (ip), vehicle: Klucel (hydroxypropylcellulose) (HPC) 106 % of control | dose: 100.0 mg/kg/injection, schedule: Q01DX009 (ip), vehicle: Klucel (hydroxypropylcellulose) (HPC) 103 % of control

CCOP(=S)(N1CC1C)N1CC1C (centres undefined)
inactive: dose: 25.0 mg/kg/injection, schedule: Q01DX Z (ip), vehicle: carboxymethylcellulose (CMC) 103 % of control | dose: 50.0 mg/kg/injection, schedule: Q01DX Z (ip), vehicle: carboxymethylcellulose (CMC) 105 % of control | dose: 100.0 mg/kg/injection, schedule: Q01DX Z (ip), vehicle: carboxymethylcellulose (CMC) 108 % of control | dose: 200.0 mg/kg/injection, schedule: Q01DX Z (ip), vehicle: carboxymethylcellulose (CMC) 121 % of control

CC[N+](C)(CC)CCNC(c1ccc(OC)c(OC)c1)C(Cl)(Cl)Cl (centres undefined)
inactive: [7] 88 % of control

Cc1ccc(N=Nc2ccc(C)cc2NC(=O)Nc2cc([N+](=O)[O-])ccc2C)cc1
inactive: [8] 92 % of control | [9] 101 % of control | [10] 111 % of control

CCCCOc1ccc(C(=O)N/N=C\c2cc(OC)c(OC)c(OC)c2)cc1
inactive: [1] 94 % of control | [2] 94 % of control | [3] 91 % of control

COc1cc(/C=N/NC(=O)c2ccccc2Cl)ccc1O
inactive: dose: 12.5 mg/kg/injection, schedule: Q01DX009 (ip), vehicle: saline with Tween-80 91 % of control | dose: 25.0 mg/kg/injection, schedule: Q01DX009 (ip), vehicle: saline with Tween-80 88 % of control | dose: 50.0 mg/kg/injection, schedule: Q01DX009 (ip), vehicle: saline with Tween-80 95 % of control and 97 % of control

CCOC(=O)CNC(=O)C=[N+]=[N-]
inactive: dose: 350.0 mg/kg/injection, schedule: Q01DX Z (ip), vehicle: water 116 % of control | dose: 500.0 mg/kg/injection, schedule: Q01DX Z (ip), vehicle: water 91 % of control

O=CC12C=CC(CC1)C1C(=O)OC(=O)C12 (centres undefined)
inactive: dose: 75.0 mg/kg/injection, schedule: Q01DX009 (ip), vehicle: saline 112 % of control | dose: 100.0 mg/kg/injection, schedule: Q01DX001 (ip), vehicle: saline 91 % of control | dose: 150.0 mg/kg/injection, schedule: Q01DX009 (ip), vehicle: saline 97 % of control | dose: 200.0 mg/kg/injection, schedule: Q01DX001 (ip), vehicle: saline 98 % of control | dose: 300.0 mg/kg/injection, schedule: Q01DX009 (ip), vehicle: saline 91 % of control | dose: 400.0 mg/kg/injection, schedule: Q01DX001 (ip), vehicle: saline 96 % of control

C=C1CCOC1=O
inactive: [4] 104 % of control | [5] 108 % of control | [6] 106 % of control

O=C(/C=C/c1ccccc1)NC(=S)NC1CCCCC1
inactive: dose: 50.0 mg/kg/injection, schedule: Q01DX009 (ip), vehicle: carboxymethylcellulose (CMC) 101 % of control and 102 % of control | dose: 50.0 mg/kg/injection, schedule: Q04DX003 (ip), vehicle: carboxymethylcellulose (CMC) 103 % of control | dose: 100.0 mg/kg/injection, schedule: Q01DX009 (ip), vehicle: carboxymethylcellulose (CMC) 97 % of control and 90 % of control | dose: 100.0 mg/kg/injection, schedule: Q04DX002 (ip), vehicle: carboxymethylcellulose (CMC) 100 % of control and 106 % of control | dose: 100.0 mg/kg/injection, schedule: Q04DX003 (ip), vehicle: carboxymethylcellulose (CMC) 96 % of control | dose: 200.0 mg/kg/injection, schedule: Q01DX009 (ip), vehicle: carboxymethylcellulose (CMC) 93 % of control and 91 % of control | dose: 200.0 mg/kg/injection, schedule: Q04DX002 (ip), vehicle: carboxymethylcellulose (CMC) 103 % of control and 91 % of control | dose: 200.0 mg/kg/injection, schedule: Q04DX003 (ip), vehicle: carboxymethylcellulose (CMC) 96 % of control | dose: 400.0 mg/kg/injection, schedule: Q04DX002 (ip), vehicle: carboxymethylcellulose (CMC) 87 % of control

CCCCCCCCCCCCCCCCCC(CCCCCCCCCCCCCCCCC)=NNC(N)=S
inactive: dose: 100.0 mg/kg/injection, schedule: Q01DX009 (ip), vehicle: other 92 % of control | dose: 200.0 mg/kg/injection, schedule: Q01DX009 (ip), vehicle: other 89 % of control | dose: 400.0 mg/kg/injection, schedule: Q01DX009 (ip), vehicle: other 97 % of control

COc1ccc(OCCOC(C)=O)cc1
inactive: [8] 107 % of control | [9] 100 % of control | [10] 103 % of control

CCn1c(C)nccc1=O
inactive: dose: 37.5 mg/kg/injection, schedule: Q01DX001 (ip), vehicle: saline 101 % of control | [7] 101 % of control | dose: 150.0 mg/kg/injection, schedule: Q01DX001 (ip), vehicle: saline 100 % of control

c1ccc(CCN2CCOCC2)nc1
inactive: [11] 109 % of control | [12] 96 % of control

Cc1nccnc1SC1CCCCC1
inactive: [1] 96 % of control | [2] 96 % of control | [3] 93 % of control

CCOC(=O)N(Cc1ccccc1)C1CC1
inactive: dose: 25.0 mg/kg/injection, schedule: Q01DX009 (ip), vehicle: saline 95 % of control | dose: 25.0 mg/kg/injection, schedule: Q04DX003 (ip), vehicle: saline 104 % of control | dose: 50.0 mg/kg/injection, schedule: Q01DX009 (ip), vehicle: saline 104 % of control | dose: 100.0 mg/kg/injection, schedule: Q01DX009 (ip), vehicle: saline 102 % of control | [11] 104 % of control | dose: 200.0 mg/kg/injection, schedule: Q01DX009 (ip), vehicle: saline 98 % of control | [12] 104 % of control | dose: 400.0 mg/kg/injection, schedule: Q01DX009 (ip), vehicle: saline 103 % of control | dose: 400.0 mg/kg/injection, schedule: Q04DX003 (ip), vehicle: saline 102 % of control

ClC1(Cl)CC1c1ccccc1 (centres undefined)
inactive: dose: 100.0 mg/kg/injection, schedule: Q01DX009 (ip), vehicle: saline with Tween-80 101 % of control | dose: 200.0 mg/kg/injection, schedule: Q01DX009 (ip), vehicle: saline with Tween-80 91 % of control
